Data reported in ChEMBL document CHEMBL1201862, “PubChem BioAssay data set” (2004).
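Five compound concentrations were applied to cells in 96-well plates for 48 hours; endpoints were derived by simple linear interpolation of the resulting dose-response curve. GI50 marks 50% less growth.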 The source made the active and inactive calls. Cut-off read from the data, not from the text of the source: active = GI50 up to about 1.1 µM and inactive = higher.

How the values were obtained:
Experiment in all cases: NCI anticancer screen, dose series, 48 h
[1] = system: HCT-116
[2] = system: MCF7
[3] = system: A498
[4] = system: SN12C
[5] = system: MDA-MB-435
[6] = system: SF-268
[7] = system: U-251
[8] = system: OVCAR-3
[9] = system: UACC-257
[10] = system: A549
[11] = system: M14
[12] = system: SW-620
[13] = system: K562
[14] = system: T47D
[15] = system: SNB-19
[16] = system: BT-549
[17] = system: UO-31
[18] = system: SK-MEL-2
[19] = system: COLO 205
[20] = system: CAKI-1
[21] = system: SF-295
[22] = system: HCT-15
[23] = system: 786-0
[24] = system: SNB-75
[25] = system: DU-145
[26] = system: EKVX
[27] = system: MOLT-4
[28] = system: SK-MEL-28
[29] = system: CCRF-CEM
[30] = system: LOX IMVI
[31] = system: SF-539
[32] = system: ACHN
[33] = system: SK-MEL-5
[34] = system: PC-3
[35] = system: OVCAR-5
[36] = system: OVCAR-4
[37] = system: HL-60
[38] = system: NCI-H460
[39] = system: NCI/ADR-RES
[40] = system: Hs-578T
[41] = system: MDA-MB-231
[42] = system: TK-10
[43] = system: RPMI-8226
[44] = system: MDA-N
[45] = system: SK-OV-3
[46] = system: SR
[47] = system: UACC-62
[48] = system: HOP-62
[49] = system: KM12
[50] = system: HOP-92
[51] = system: IGROV-1
[52] = system: OVCAR-8
[53] = system: HT-29
[54] = system: HCC 2998
[55] = system: NCI-H23
[56] = system: Malme-3M
[57] = system: NCI-H226
[58] = system: NCI-H522

For `O=C(c1ccccc1)c1ccc(N2C(=O)/C(=C/c3ccccc3S)N=C2c2ccccc2)c(N2C(=O)/C(=C/c3ccccc3S)N=C2c2ccccc2)c1`, the GI50 [1] was 66.4 µM (inactive), the GI50 [2] was 45.6 µM (inactive) and the GI50 [3] was 60.7 µM (inactive). For the same compound, the GI50 [4] was > 100 µM (inactive), the GI50 [5] was 19.6 µM (inactive) and the GI50 [6] was 39.9 µM (inactive). The GI50 [7] was 25.2 µM (inactive), the GI50 [8] was 20.1 µM (inactive) and the GI50 [9] was > 100 µM (inactive). For the same compound, the GI50 [10] was 33.2 µM (inactive), the GI50 [11] was 38.2 µM (inactive) and the GI50 [12] was 43.2 µM (inactive). The GI50 [13] was 48.9 µM (inactive), the GI50 [14] was 43.3 µM (inactive) and the GI50 [15] was 41.5 µM (inactive). For the same compound, the GI50 [16] was 49.3 µM (inactive), the GI50 [17] was 84.5 µM (inactive) and the GI50 [18] was 22.7 µM (inactive). For the same compound, the GI50 [19] was 60.1 µM (inactive), the GI50 [20] was > 100 µM (inactive) and the GI50 [21] was 46.6 µM (inactive). The GI50 [22] was 53.3 µM, the GI50 [23] was > 100 µM (inactive) and the GI50 [24] was 21.2 µM (inactive). For the same compound, the GI50 [25] was 59 µM (inactive), the GI50 [26] was > 100 µM (inactive) and the GI50 [27] was 21.4 µM (inactive). The GI50 [28] was > 100 µM (inactive), the GI50 [29] was 22.2 µM (inactive) and the GI50 [30] was 24.9 µM (inactive). The GI50 [31] was 21.3 µM (inactive), the GI50 [32] was 60.4 µM (inactive) and the GI50 [33] was 29.4 µM (inactive). For the same compound, the GI50 [34] was 42.6 µM (inactive), the GI50 [35] was > 100 µM (inactive) and the GI50 [36] was 38.3 µM (inactive). For the same compound, the GI50 [37] was 11.8 µM (inactive), the GI50 [38] was 47.6 µM (inactive) and the GI50 [39] was 32.4 µM (inactive). For the same compound, the GI50 [40] was 35 µM (inactive), the GI50 [41] was > 100 µM (inactive) and the GI50 [42] was > 100 µM (inactive). The GI50 [43] was 21.9 µM (inactive), the GI50 [44] was 36.5 µM (inactive) and the GI50 [45] was > 100 µM (inactive). For the same compound, the GI50 [46] was 30.5 µM (inactive), the GI50 [47] was 49.4 µM (inactive) and the GI50 [48] was 40.7 µM (inactive). The GI50 [49] was 33.3 µM (inactive), the GI50 [50] was > 100 µM (inactive) and the GI50 [51] was 46.9 µM (inactive). For the same compound, the GI50 [52] was 27.8 µM (inactive), the GI50 [53] was 86.5 µM (inactive) and the GI50 [54] was 35.7 µM (inactive).
`O=C1CSC(c2cccc([N+](=O)[O-])c2)N1c1ccc(-n2c(-c3ccccc3)nc3ccccc3c2=O)cc1` (stereo unspecified) was tested, and the GI50 [1] was > 100 µM (inactive), the GI50 [2] was > 100 µM (inactive) and the GI50 [3] was > 100 µM (inactive). The GI50 [55] was > 100 µM (inactive), the GI50 [4] was > 100 µM (inactive) and the GI50 [5] was > 100 µM (inactive). For the same compound, the GI50 [6] was 99.3 µM (inactive), the GI50 [7] was > 100 µM (inactive) and the GI50 [8] was > 100 µM (inactive). For the same compound, the GI50 [9] was > 100 µM (inactive), the GI50 [10] was > 100 µM (inactive) and the GI50 [11] was > 100 µM (inactive). For the same compound, the GI50 [12] was > 100 µM (inactive), the GI50 [13] was > 100 µM (inactive) and the GI50 [14] was 6.68 µM (inactive). The GI50 [15] was > 100 µM (inactive), the GI50 [16] was 28.2 µM (inactive) and the GI50 [17] was 3.76 µM (inactive). For the same compound, the GI50 [18] was 56.9 µM (inactive), the GI50 [19] was > 100 µM (inactive) and the GI50 [20] was > 100 µM (inactive). The GI50 [21] was > 100 µM (inactive), the GI50 [22] was 30.5 µM and the GI50 [23] was > 100 µM (inactive). For the same compound, the GI50 [25] was > 100 µM (inactive), the GI50 [26] was > 100 µM (inactive) and the GI50 [56] was > 100 µM (inactive). For the same compound, the GI50 [27] was 83.8 µM (inactive), the GI50 [57] was > 100 µM (inactive) and the GI50 [28] was > 100 µM (inactive). The GI50 [29] was > 100 µM (inactive), the GI50 [30] was > 100 µM (inactive) and the GI50 [31] was > 100 µM (inactive). The GI50 [58] was > 100 µM (inactive), the GI50 [32] was > 100 µM (inactive) and the GI50 [33] was > 100 µM (inactive). The GI50 [34] was > 100 µM (inactive), the GI50 [35] was > 100 µM (inactive) and the GI50 [36] was > 100 µM (inactive). The GI50 [37] was > 100 µM (inactive), the GI50 [38] was > 100 µM (inactive) and the GI50 [39] was > 100 µM (inactive). For the same compound, the GI50 [40] was 78.2 µM (inactive), the GI50 [41] was > 100 µM (inactive) and the GI50 [42] was > 100 µM (inactive). For the same compound, the GI50 [43] was > 100 µM (inactive), the GI50 [44] was > 100 µM (inactive) and the GI50 [45] was 26.2 µM (inactive). For the same compound, the GI50 [46] was 84.3 µM (inactive), the GI50 [47] was 13.9 µM (inactive) and the GI50 [48] was > 100 µM (inactive). For the same compound, the GI50 [49] was > 100 µM (inactive), the GI50 [50] was 94.8 µM (inactive) and the GI50 [51] was > 100 µM (inactive). The GI50 [52] was > 100 µM (inactive), the GI50 [53] was > 100 µM (inactive) and the GI50 [54] was 63.7 µM (inactive).
